How the values were obtained:
[1] = system: bicistronic HCV replicon (replicon RNA, GenBank Accession No. AJ242654); test: HCV Replicon Assay; type: cell-based; details: Hepatitis C virus, 72 h, read-out: Replicon IC50

Compound | IC50 [1] | melting point
Cc1c(F)cc2c(C#N)c(-c3ccc(S(=O)(=O)N[C@H](C)C(F)(F)F)cn3)n(C3CCCC3)c2c1F [compound 653, 6-(3-cyano-1-cyclopentyl-5,7-difluoro-6-methyl-1H-indol-2-yl)-N-[(2R)-1,1,1-trifluoropropan-2-yl]pyridine-3-sulfonamide] | < 500 nM | 212 to 217 °C
COc1cc2c(cc1F)c(C#N)c(-c1ncc(S(=O)(=O)NC(CF)CF)cn1)n2C1CCC1 [compound 150, 2-(3-cyano-1-cyclobutyl-5-fluoro-6-methoxy-1H-indol-2-yl)-N-(1,3-difluoropropan-2-yl)pyrimidine-5-sulfonamide] | < 500 nM | 245 to 247 °C
Cc1cc(F)c2c(C#N)c(-c3ccc(S(=O)(=O)NC4(C(F)(F)F)CC4)cn3)n(C3CCCC3)c2c1 [compound 628, 6-(3-cyano-1-cyclopentyl-4-fluoro-6-methyl-1H-indol-2-yl)-N-[1-(trifluoromethyl)cyclopropyl]pyridine-3-sulfonamide] | < 500 nM | 242 to 246 °C
N#Cc1c(-c2ccc(S(=O)(=O)NC(CF)CF)cn2)n(C2CCC2)c2ccc(OC(F)F)cc12 [compound 32, 6-[3-cyano-1-cyclobutyl-5-(difluoromethoxy)-1H-indol-2-yl]-N-(1,3-difluoropropan-2-yl)pyridine-3-sulfonamide] | < 500 nM | 166 to 172 °C
CCc1cc2c(cc1F)c(C#N)c(-c1ccc(S(=O)(=O)N[C@H](C)C(F)(F)F)cn1)n2-c1ccc(F)cn1 [compound 880, 6-[3-cyano-6-ethyl-5-fluoro-1-(5-fluoropyridin-2-yl)-1H-indol-2-yl]-N-[(2R)-1,1,1-trifluoropropan-2-yl]pyridine-3-sulfonamide] | < 500 nM | 209 to 216 °C
Cc1cc2c(cc1F)c(C(=O)O)c(-c1ccc(S(=O)(=O)NC(C)(C)C(F)(F)F)cn1)n2C1CCCC1 [compound 765, 1-cyclopentyl-5-fluoro-6-methyl-2-{5-[(1,1,1-trifluoro-2-methylpropan-2-yl)sulfamoyl]pyridin-2-yl}-1H-indole-3-carboxylic acid] | < 500 nM | 233 to 234 °C
Cc1ccc2c(c1)c(C#N)c(-c1ncc(S(=O)(=O)NC(C)C)cn1)n2C1CCCCC1 [compound 200, 2-(3-cyano-1-cyclohexyl-5-methyl-1H-indol-2-yl)-N-(propan-2-yl)pyrimidine-5-sulfonamide] | 500 to 2000 nM | 183 to 188 °C
CCc1cc2c(cc1F)c(C#N)c(-c1ccc(S(=O)(=O)N[C@@H](C)C(F)(F)F)cn1)n2-c1cc(C)ccn1 [compound 932, 6-[3-cyano-6-ethyl-5-fluoro-1-(4-methylpyridin-2-yl)-1H-indol-2-yl]-N-[(2S)-1,1,1-trifluoropropan-2-yl]pyridine-3-sulfonamide] | < 500 nM | 188 to 190 °C
CCc1cc2c(cc1F)c(C#N)c(-c1ccc(S(=O)(=O)NC(C)(C)C)cn1)n2-c1ncccc1F [compound 900, N-tert-butyl-6-[3-cyano-6-ethyl-5-fluoro-1-(3-fluoropyridin-2-yl)-1H-indol-2-yl]pyridine-3-sulfonamide] | 500 to 2000 nM | 200 to 203 °C
C[C@H](NS(=O)(=O)c1cnc(-c2c(C#N)c3cc(F)ccc3n2C2CCC2)nc1)C1CC1 [compound 544, 2-(3-cyano-1-cyclobutyl-5-fluoro-1H-indol-2-yl)-N-[(1S)-1-cyclopropylethyl]pyrimidine-5-sulfonamide] | < 500 nM | 178 to 181 °C
CC(C)NS(=O)(=O)c1cnc(-c2c(C#N)c3cc(Cl)ccc3n2C(C)C)nc1 [compound 120, 2-[5-chloro-3-cyano-1-(propan-2-yl)-1H-indol-2-yl]-N-(propan-2-yl)pyrimidine-5-sulfonamide] | < 500 nM | 202 to 220 °C
CCn1c(-c2ccc(N(C(C)C)S(=O)(=O)CC)cn2)c(C#N)c2ccc(OC(C)C)cc21 [compound 282, N-{6-[3-cyano-1-ethyl-6-(propan-2-yloxy)-1H-indol-2-yl]pyridin-3-yl}-N-(propan-2-yl)ethanesulfonamide] | 500 to 2000 nM | 170 to 175 °C
Cc1ccc2c(c1)c(C#N)c(-c1ncc(S(=O)(=O)NC(CF)CF)cn1)n2C1CCCC1 [compound 160, 2-(3-cyano-1-cyclopentyl-5-methyl-1H-indol-2-yl)-N-(1,3-difluoropropan-2-yl)pyrimidine-5-sulfonamide] | < 500 nM | 202 to 207 °C
N#Cc1c(-c2ccc(S(=O)(=O)NC(CF)CF)cn2)n(C2CCCC2)c2cc(OC(F)F)ccc12 [compound 49, 6-[3-cyano-1-cyclopentyl-6-(difluoromethoxy)-1H-indol-2-yl]-N-(1,3-difluoropropan-2-yl)pyridine-3-sulfonamide] | < 500 nM | 177 to 178 °C
N#Cc1ccc2c(C#N)c(-c3ncc(S(=O)(=O)NC(CF)CF)cn3)n(C3CCC3)c2c1 [compound 466, 2-(3,6-dicyano-1-cyclobutyl-1H-indol-2-yl)-N-(1,3-difluoropropan-2-yl)pyrimidine-5-sulfonamide] | < 500 nM | 240 to 241 °C
Cc1ccc2c(c1)c(C#N)c(-c1ccc(S(=O)(=O)NC3(C(F)(F)F)CC3)cn1)n2C1CCC1 [compound 328, 6-(3-cyano-1-cyclobutyl-5-methyl-1H-indol-2-yl)-N-[1-(trifluoromethyl)cyclopropyl]pyridine-3-sulfonamide] | < 500 nM | 193 to 199 °C
CCn1c(-c2ncc(S(=O)(=O)NC(C)C)cn2)c(C#N)c2cc(OC(F)F)ccc21 [compound 242, 2-[3-cyano-5-(difluoromethoxy)-1-ethyl-1H-indol-2-yl]-N-(propan-2-yl)pyrimidine-5-sulfonamide] | 500 to 2000 nM | 180 to 185 °C
Cc1ccc2c(c1)c(C#N)c(-c1ccc(S(=O)(=O)N[C@@H](C)C(F)(F)F)cn1)n2-c1ccccc1 [compound 921, 6-(3-cyano-5-methyl-1-phenyl-1H-indol-2-yl)-N-[(2S)-1,1,1-trifluoropropan-2-yl]pyridine-3-sulfonamide] | < 500 nM | 160 to 165 °C
CC(C)(C)S(=O)(=O)Nc1ccc(-c2c(C#N)c3ccc(OC(F)F)cc3n2CC2CC2)cn1 [compound 269, N-{5-[3-cyano-1-(cyclopropylmethyl)-6-(difluoromethoxy)-1H-indol-2-yl]pyridin-2-yl}-2-methylpropane-2-sulfonamide] | 500 to 2000 nM | 214 to 215 °C
CCc1cc2c(cc1F)c(C(N)=O)c(-c1ccc(S(=O)(=O)N[C@@H](C)C(F)(F)F)cn1)n2C1CCCC1 [compound 830, 1-cyclopentyl-6-ethyl-5-fluoro-2-(5-{[(2S)-1,1,1-trifluoropropan-2-yl]sulfamoyl}pyridin-2-yl)-1H-indole-3-carboxamide] | < 500 nM | 237 to 238 °C
N#Cc1c(-c2ncc(S(=O)(=O)NC(CF)CF)cn2)n(C2CCCC2)c2cc(F)ccc12 [compound 166, 2-(3-cyano-1-cyclopentyl-6-fluoro-1H-indol-2-yl)-N-(1,3-difluoropropan-2-yl)pyrimidine-5-sulfonamide] | < 500 nM | 167 to 169 °C
CCc1cc2c(C#N)c(-c3ccc(S(=O)(=O)N[C@@H](C)C(F)(F)F)cn3)n(C3CCC3)c2cc1OC(F)F [compound 647, 6-[3-cyano-1-cyclobutyl-6-(difluoromethoxy)-5-ethyl-1H-indol-2-yl]-N-[(2S)-1,1,1-trifluoropropan-2-yl]pyridine-3-sulfonamide] | 500 to 2000 nM | 160 to 162 °C
Cc1ccc2c(C#N)c(-c3ccc(S(=O)(=O)NC(CF)CF)cn3)n(C3CCCC3)c2c1 [compound 44, 6-(3-cyano-1-cyclopentyl-6-methyl-1H-indol-2-yl)-N-(1,3-difluoropropan-2-yl)pyridine-3-sulfonamide] | < 500 nM | 144 to 145 °C
Cc1cc2c(cc1F)c(C#N)c(-c1ccc(S(=O)(=O)N[C@@H](C)C(F)(F)F)cn1)n2-c1ccsc1 [compound 992, 6-[3-cyano-5-fluoro-6-methyl-1-(thiophen-3-yl)-1H-indol-2-yl]-N-[(2S)-1,1,1-trifluoropropan-2-yl]pyridine-3-sulfonamide] | < 500 nM | 196 to 203 °C
COc1cc2c(C#N)c(-c3ccc(S(=O)(=O)N[C@@H](C)C(F)(F)F)cn3)n(C3CCC3)c2cc1C [compound 757, 6-(3-cyano-1-cyclobutyl-5-methoxy-6-methyl-1H-indol-2-yl)-N-[(2S)-1,1,1-trifluoropropan-2-yl]pyridine-3-sulfonamide] | 500 to 2000 nM | 222 to 223 °C
CC(C)n1c(-c2ccc(S(=O)(=O)NC(CF)CF)cn2)c(C#N)c2ccc(Cl)cc21 [compound 63, 6-[6-chloro-3-cyano-1-(propan-2-yl)-1H-indol-2-yl]-N-(1,3-difluoropropan-2-yl)pyridine-3-sulfonamide] | < 500 nM | 200 to 202 °C
N#Cc1c(-c2ccc(S(=O)(=O)NC(CF)CF)cn2)n(C2CCCCC2)c2cc(OC(F)(F)F)ccc12 [compound 105, 6-[3-cyano-1-cyclohexyl-6-(trifluoromethoxy)-1H-indol-2-yl]-N-(1,3-difluoropropan-2-yl)pyridine-3-sulfonamide] | < 500 nM | 146 to 148 °C
Cc1ccc2c(c1)c(C#N)c(-c1ccc(S(=O)(=O)N[C@H](C)C(F)(F)F)cn1)n2CC1CC1 [compound 458, 6-[3-cyano-1-(cyclopropylmethyl)-5-methyl-1H-indol-2-yl]-N-[(2R)-1,1,1-trifluoropropan-2-yl]pyridine-3-sulfonamide] | < 500 nM | 166 to 172 °C
N#Cc1c(-c2ccc(S(=O)(=O)NC(CF)CF)cn2)n(C2CCCC2)c2cc(OC(F)F)c(F)cc12 [compound 573, 6-[3-cyano-1-cyclopentyl-6-(difluoromethoxy)-5-fluoro-1H-indol-2-yl]-N-(1,3-difluoropropan-2-yl)pyridine-3-sulfonamide] | < 500 nM | 190 to 194 °C
